Results as given in patent US9908873B2, “GPR40 agonists for the treatment of type II diabetes” (Janssen Pharmaceutica NV, priority 2015, dated 2018).
Several values for one entry are separate records, joined by “and”; a condition that tells them apart may be missing. Equal entries are not always repeated.

Target: T1, human GPR40 (Homo sapiens, UniProt O14842)
T1 construct: expressed in transfected cells
Test: GPR40 Calcium Flux Assay
Type: cell-based
Details: transfected HEK293 cells stably expressing human GPR40; calcium-sensitive fluorescent dye; read-out: hGPR40 Ca^2+ Assay EC50
Protocol: Compounds were tested in a calcium flux assay using transfected HEK293 cells stably expressing either human GPR40 or rat GPR40. Human GPR40 expressing cells were cultured in DMEM-High Glucose media supplemented with 10% fetal bovine serum, 1×L-Glutamine, 1×Penicillin/Streptomycin and 500 μg/mL G418. Rat GPR40 expressing cells were cultured in DMEM-High Glucose media supplemented with 10% fetal bovine serum and 1 μg/mL puromycin. Cells were plated into poly-D-lysine coated 384-well plates and cultured overnight in a 37° C. humidified tissue culture incubator under 5% CO2/[…] atmosphere. On the day of the experiment, the culture media was replaced with assay buffer (HBSS, 20 mM HEPES, 0.1% BSA) and the cells incubated at 37° C. for 1 h. Calcium-sensitive fluorescent dye (Fluo 8 No-Wash Calcium Dye, ABD Bioquest) was then added and the cells incubated for another 30 min at 37° C. followed by 15 min at room temperature while protected from the light. The cell plate and a plate of diluted compounds of Formula (II) were loaded into a fluorescent plate reader that added compounds onto the cells while measuring the fluorescence intensity of each well. The plate reader recorded fluorescence intensity at 1 second intervals for 8 min and provided the data for analysis in an Excel format. EC50 values were calculated using Prism (GraphPad) software.

T1 sequence (O14842 whole entry): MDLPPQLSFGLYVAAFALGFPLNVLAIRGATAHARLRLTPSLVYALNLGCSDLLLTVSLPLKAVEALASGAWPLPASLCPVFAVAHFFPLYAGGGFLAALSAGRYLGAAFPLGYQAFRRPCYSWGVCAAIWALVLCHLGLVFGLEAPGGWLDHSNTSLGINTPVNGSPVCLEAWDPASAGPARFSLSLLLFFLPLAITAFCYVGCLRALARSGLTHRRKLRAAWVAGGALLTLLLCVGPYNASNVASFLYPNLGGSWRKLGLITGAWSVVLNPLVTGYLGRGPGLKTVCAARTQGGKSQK

EC50	Structure (SMILES)
26 nM	COc1ccc(F)c(-c2noc(/C=C/c3cccc(C(CC(=O)O)C4CC4)c3)c2C2CC2)c1 (stereo in doubt) [Cpd 58, (3S)-3-cyclopropyl-3-[3-[(E)-2-[4-cyclopropyl-3-(2-fluoro-5-methoxy-phenyl)isoxazol-5-yl]vinyl]phenyl]propanoic acid]
1 nM	COc1ccc(F)c(-c2noc(COc3cc(C(CC(=O)O)C4CC4)ccn3)c2C2=CCCC2(C)C)c1 (stereo not shown) [Cpd 53, 3-cyclopropyl-3-[2-[[4-(5,5-dimethylcyclopenten-1-yl)-3-(2-fluoro-5-methoxy-phenyl)isoxazol-5-yl]methoxy]-4-pyridyl]propanoic acid]
1 nM	COc1ccc(F)c(-c2noc(CCc3cccc([C@@H](CC(=O)O)C4CC4)c3)c2C2CCCC2(C)C)c1 (stereo partly drawn) [Cpd 54, (3S)-3-cyclopropyl-3-[3-[2-[4-(2,2-dimethylcyclopentyl)-3-(2-fluoro-5-methoxy-phenyl)isoxazol-5-yl]ethyl]phenyl]propanoic acid]
22 nM	COc1ccc(F)c(-c2noc(COc3cc(C(CC(=O)O)C4CC4)c(Cl)cn3)c2C2=CCCC2(C)C)c1 (stereo not shown) [Cpd 55, 3-[5-chloro-2-[[4-(5,5-dimethylcyclopenten-1-yl)-3-(2-fluoro-5-methoxy-phenyl)isoxazol-5-yl]methoxy]-4-pyridyl]-3-cyclopropyl-propanoic acid]
23 nM	COc1ccc(F)c(-c2noc(/C=C/c3cccc([C@@H](CC(=O)O)C4CC4)c3)c2C2=CCCC2(C)C)c1 [Cpd 56, (3S)-3-cyclopropyl-3-[3-[(E)-2-[4-(5,5-dimethylcyclopenten-1-yl)-3-(2-fluoro-5-methoxy-phenyl)isoxazol-5-yl]vinyl]phenyl]propanoic acid]
25 nM	COc1ccc(F)c(-c2noc(CCc3cccc([C@@H](CC(=O)O)C4CC4)c3)c2C2CC2)c1 [Cpd 57, (3S)-3-cyclopropyl-3-[3-[2-[4-cyclopropyl-3-(2-fluoro-5-methoxy-phenyl)isoxazol-5-yl]ethyl]phenyl]propanoic acid]
252 nM	COc1ccc(F)c(-c2noc(/C=C\c3cccc([C@@H](CC(=O)O)C4CC4)c3)c2C2=CCCC2(C)C)c1 [Cpd 59, (3S)-3-cyclopropyl-3-[3-[(Z)-2-[4-(5,5-dimethylcyclopenten-1-yl)-3-(2-fluoro-5-methoxy-phenyl)isoxazol-5-yl]vinyl]phenyl]propanoic acid]
56 nM and 29 nM	COc1ccc(F)c(-c2cc(COc3cccc([C@@H](CC(=O)O)C4CC4)c3)sc2C(C)(C)C)c1 [Cpd 60, (3S)-3-[3-[[5-tert-butyl-4-(2-fluoro-5-methoxy-phenyl)-2-thienyl]methoxy]phenyl]-3-cyclopropyl-propanoic acid]
260 nM and 205 nM	COc1ccc(F)c(-c2nsc(COc3cccc([C@@H](CC(=O)O)C4CC4)c3)c2C2=CCCC2(C)C)c1 [Cpd 61, (3S)-3-cyclopropyl-3-[3-[[4-(5,5-dimethylcyclopenten-1-yl)-3-(2-fluoro-5-methoxy-phenyl)isothiazol-5-yl]methoxy]phenyl]propanoic acid]
1 nM	COc1ccc(F)c(-c2noc(COc3cccc([C@@H](CC(=O)O)C4CC4)c3)c2C2=CCCC2(C)C)c1 [Cpd 62, (3S)-3-cyclopropyl-3-[3-[[4-(5,5-dimethylcyclopenten-1-yl)-3-(2-fluoro-5-methoxy-phenyl)isoxazol-5-yl]methoxy]phenyl]propanoic acid]
